Data from patent US20230255884A1, “FINISHED FIBROUS SRUCTURES AND METHODS OF THEIR USE AND PREPARATION” (CLEXIO BIOSCIENCES LTD., priority 2019, published 2023).
Like-named read-outs stand apart in the source and are kept apart here.

Tests used:
[1] = Example 20: loading kinetics, aqueous 10% lidocaine, 10% PEG 400, 10% propylene glycol, 2% Polysorbate 80, 60° C., pre-cut shapes of 91.4% polyamide/8.6% elastane, squeezed; format: physicochemical
[2] = Example 21: % Add on by finish composition, 60° C., 1 h, 91.4% polyamide/8.6% elastane; format: physicochemical
[3] = Example 26: leveling; % lidocaine Add on from extraction in 0.01M HCl and HPLC; format: physicochemical
[4] = Example 9: % Add on of 91.4% polyamide/8.6% elastane after 1 h in aqueous 10% PEG 400, 10% propylene glycol, 2% Polysorbate 80 with lidocaine, dried overnight at RT; format: physicochemical
[5] = Example 23: % Add on by surfactant concentration, 60° C., 1 h; format: physicochemical; conditions: 3% lidocaine
[6] = format: physicochemical; conditions: 25° C.
[7] = Example 11: % Add on from aqueous lidocaine without excipients, 60° C., 1 h, 91.4% polyamide/8.6% elastane; format: physicochemical
[8] = Example 22: % Add on by humectant and permeation enhancer concentration, 60° C., 1 h, squeezed; format: physicochemical; conditions: 3% lidocaine
[9] = 3% lidocaine, 2% Polysorbate 80
[10] = 3% lidocaine, 10% PEG 400, 2% Polysorbate 80
[11] = 3% lidocaine, 10% PEG 400, 10% propylene glycol
[12] = 3% lidocaine, 10% PEG 400, 10% propylene glycol, 2% Polysorbate 80
[13] = 3% lidocaine, 10% propylene glycol
[14] = 3% lidocaine, 10% propylene glycol, 2% Polysorbate 80

## CCN(CC)CC(=O)Nc1c(C)cccc1C [Lidocaine, lidocaine]
[1]; loading time 1 min, Combined
  % Add on: 29.915%
[1]; loading time 1 min, Shape A
  % Add on: 29.820%
[1]; loading time 1 min, Shape B
  % Add on: 27.838%
[1]; loading time 1 min, Shape C
  % Add on: 30.455%
[1]; loading time 1 min, Shape D
  % Add on: 31.547%
[1]; loading time 2 min, Combined
  % Add on: 35.227%
[1]; loading time 2 min, Shape A
  % Add on: 34.985%
[1]; loading time 2 min, Shape B
  % Add on: 36.019%
[1]; loading time 2 min, Shape C
  % Add on: 34.260%
[1]; loading time 2 min, Shape D
  % Add on: 35.643%
[1]; loading time 3 min, Combined
  % Add on: 36.500%
[1]; loading time 3 min, Shape A
  % Add on: 37.273%
[1]; loading time 3 min, Shape B
  % Add on: 36.782%
[1]; loading time 3 min, Shape C
  % Add on: 35.879%
[1]; loading time 3 min, Shape D
  % Add on: 36.064%
[1]; loading time 6 min, Combined
  % Add on: 41.938%
[1]; loading time 6 min, Shape A
  % Add on: 42.242%
[1]; loading time 6 min, Shape B
  % Add on: 44.328%
[1]; loading time 6 min, Shape C
  % Add on: 40.764%
[1]; loading time 6 min, Shape D
  % Add on: 40.418%
[1]; loading time 10 min, Combined
  % Add on: 41.190%
[1]; loading time 10 min, Shape A
  % Add on: 39.998%
[1]; loading time 10 min, Shape B
  % Add on: 44.262%
[1]; loading time 10 min, Shape C
  % Add on: 40.939%
[1]; loading time 10 min, Shape D
  % Add on: 39.560%
[1]; loading time 60 min, Combined
  % Add on: 44.374%
[1]; loading time 60 min, Shape B
  % Add on: 41.509%
[1]; loading time 60 min, Shape C
  % Add on: 48.701%
[1]; loading time 60 min, Shape D
  % Add on: 41.556%
[1]; loading time 120 min, Combined
  % Add on: 42.458%
[1]; loading time 120 min, Shape A
  % Add on: 42.233%
[1]; loading time 120 min, Shape B
  % Add on: 43.286%
[1]; loading time 120 min, Shape C
  % Add on: 43.679%
[1]; loading time 120 min, Shape D
  % Add on: 40.635%
[1]; loading time 180 min, Combined
  % Add on: 41.691%
[1]; loading time 180 min, Shape A
  % Add on: 42.281%
[1]; loading time 180 min, Shape B
  % Add on: 40.802%
[1]; loading time 180 min, Shape C
  % Add on: 42.474%
[1]; loading time 180 min, Shape D
  % Add on: 41.206%
[2]; 3% lidocaine only
  Mean % Add on (dried at RT): 37.25%
  Mean % Add on (squeezed): 20.27%
[2]; [9]
  Mean % Add on (dried at RT): 19.10%
  Mean % Add on (squeezed): 14.97%
[2]; 3% lidocaine, 10% PEG 400
  Mean % Add on (dried at RT): 54.02%
  Mean % Add on (squeezed): 32.03%
[2]; [10]
  Mean % Add on (dried at RT): 42.88%
  Mean % Add on (squeezed): 24.91%
[2]; [11]
  Mean % Add on (dried at RT): 56.37%
  Mean % Add on (squeezed): 30.01%
[2]; [12]
  Mean % Add on (dried at RT): 40.92%
  Mean % Add on (squeezed): 25.73%
[2]; [13]
  Mean % Add on (dried at RT): 34.89%
  Mean % Add on (squeezed): 21.14%
[2]; [14]
  Mean % Add on (dried at RT): 19.34%
  Mean % Add on (squeezed): 14.48%
[3]; exposure to 0.01M HCl 1 hr
  % lidocaine Add on: 18.86%
[3]; exposure to 0.01M HCl 2 hr
  % lidocaine Add on: 18.07%
[3]; exposure to 0.01M HCl 4 hr
  % lidocaine Add on: 18.78%
[3]; exposure to 0.01M HCl 6 hr
  % lidocaine Add on: 18.25%
[3]; exposure to 0.01M HCl 22 hr
  % lidocaine Add on: 18.04%
[4]; lidocaine 0.1% (w/w), 2-8° C.
  % Add on: 25.93%
[4]; lidocaine 0.1% (w/w), 50° C.
  % Add on: 32.73%
[4]; lidocaine 0.1% (w/w), 80° C.
  % Add on: 32.20%
[4]; lidocaine 0.1% (w/w), RT
  % Add on: 23.91%
[4]; lidocaine 0.5% (w/w), 2-8° C.
  % Add on: 31.48%
[4]; lidocaine 0.5% (w/w), 50° C.
  % Add on: 29.79%
[4]; lidocaine 0.5% (w/w), 80° C.
  % Add on: 23.91%
[4]; lidocaine 0.5% (w/w), RT
  % Add on: 26.79%
[4]; lidocaine 1% (w/w), 2-8° C.
  % Add on: 34.00%
[4]; lidocaine 1% (w/w), 50° C.
  % Add on: 64.44%
[4]; lidocaine 1% (w/w), 80° C.
  % Add on: 32.14%
[4]; lidocaine 1% (w/w), RT
  % Add on: 33.96%
[4]; lidocaine 3% (w/w), 2-8° C.
  % Add on: 40.00%
[4]; lidocaine 3% (w/w), 50° C.
  % Add on: 56.52%
[4]; lidocaine 3% (w/w), 80° C.
  % Add on: 48.98%
[4]; lidocaine 3% (w/w), RT
  % Add on: 43.75%
[4]; lidocaine 5% (w/w), 2-8° C.
  % Add on: 60.00%
[4]; lidocaine 5% (w/w), 50° C.
  % Add on: 46.00%
[4]; lidocaine 5% (w/w), 80° C.
  % Add on: 64.91%
[4]; lidocaine 5% (w/w), RT
  % Add on: 47.27%
[4]; lidocaine 8% (w/w), 2-8° C.
  % Add on: 50.00%
[4]; lidocaine 8% (w/w), 50° C.
  % Add on: 64.15%
[4]; lidocaine 8% (w/w), 80° C.
  % Add on: 89.13%
[4]; lidocaine 8% (w/w), RT
  % Add on: 58.00%
[4]; lidocaine 10% (w/w), 2-8° C.
  % Add on: 55.77%
[4]; lidocaine 10% (w/w), 50° C.
  % Add on: 74.55%
[4]; lidocaine 10% (w/w), 80° C.
  % Add on: 78.72%
[4]; lidocaine 10% (w/w), RT
  % Add on: 102.04%
[4]; lidocaine 15% (w/w), 2-8° C.
  % Add on: 69.77%
[4]; lidocaine 15% (w/w), 50° C.
  % Add on: 95.74%
[4]; lidocaine 15% (w/w), 80° C.
  % Add on: 117.78%
[4]; lidocaine 15% (w/w), RT
  % Add on: 116.98%
[4]; lidocaine 20% (w/w), 2-8° C.
  % Add on: 78.72%
[4]; lidocaine 20% (w/w), 50° C.
  % Add on: 107.41%
[4]; lidocaine 20% (w/w), 80° C.
  % Add on: 116.00%
[4]; lidocaine 20% (w/w), RT
  % Add on: 134.04%
[4]; lidocaine 25% (w/w), 2-8° C.
  % Add on: 132.08%
[4]; lidocaine 25% (w/w), 50° C.
  % Add on: 124.00%
[4]; lidocaine 25% (w/w), 80° C.
  % Add on: 132.56%
[4]; lidocaine 25% (w/w), RT
  % Add on: 269.57%
[5]; 2% Polysorbate 80
  Mean % Add on (dried at RT): 16.18%
[5]; 5% Polysorbate 80
  Mean % Add on (dried at RT): 22.89%
[5]; 8% Polysorbate 80
  Mean % Add on (dried at RT): 21.18%
[5]; 10% PEG 400
  Mean % Add on (dried at RT): 39.67%
[5]; 10% Polysorbate 80
  Mean % Add on (dried at RT): 24.11%
[5]; 10% propylene glycol
  Mean % Add on (dried at RT): 23.99%
[5]; 15% Polysorbate 80
  Mean % Add on (dried at RT): 33.29%
[5]; 20% Polysorbate 80
  Mean % Add on (dried at RT): 38.08%
[6]; lidocaine 0.1%, dried at RT
  % Add on: 42.31%
[6]; lidocaine 0.1%, squeezed
  % Add on: 7.23%
[6]; lidocaine 0.1%, washed in NaOH
  % Add on: 2.74%
[6]; lidocaine 0.1%, washed in water
  % Add on: 1.40%
[6]; lidocaine 25%, dried at RT
  % Add on: 118.56%
[7]; lidocaine 0.1% w/w, dried at RT
  % Add on: 1.03%
[7]; lidocaine 0.1% w/w, squeezed
  % Add on: 1.09%
[7]; lidocaine 0.4% w/w, dried at RT
  % Add on: 2.86%
[7]; lidocaine 0.4% w/w, squeezed
  % Add on: 2.91%
[7]; lidocaine 1% w/w, dried at RT
  % Add on: 8.03%
[7]; lidocaine 1% w/w, squeezed
  % Add on: 7.57%
[7]; lidocaine 3% w/w, dried at RT
  % Add on: 22.17%
[7]; lidocaine 3% w/w, squeezed
  % Add on: 28.01%
[7]; lidocaine 5% w/w, dried at RT
  % Add on: 31.61%
[7]; lidocaine 5% w/w, squeezed
  % Add on: 39.06%
[7]; lidocaine 10% w/w, dried at RT
  % Add on: 102.39%
[7]; lidocaine 10% w/w, squeezed
  % Add on: 30.39%
[7]; lidocaine 15% w/w, dried at RT
  % Add on: 62.68%
[7]; lidocaine 15% w/w, squeezed
  % Add on: 98.46%
[7]; lidocaine 25% w/w, dried at RT
  % Add on: 56.33%
[7]; lidocaine 25% w/w, squeezed
  % Add on: 148.02%
[8]; 2% PEG 400, 2% Polysorbate 80
  Mean % Add on: 16.59%
[8]; 2% propylene glycol, 2% Polysorbate 80
  Mean % Add on: 14.96%
[8]; 8% PEG 400, 2% Polysorbate 80
  Mean % Add on: 26.06%
[8]; 8% propylene glycol, 2% Polysorbate 80
  Mean % Add on: 15.93%
[8]; 15% PEG 400, 2% Polysorbate 80
  Mean % Add on: 30.96%
[8]; 15% propylene glycol, 2% Polysorbate 80
  Mean % Add on: 14.84%
[8]; 20% PEG 400, 2% Polysorbate 80
  Mean % Add on: 37.95%
[8]; 20% propylene glycol, 2% Polysorbate 80
  Mean % Add on: 16.03%
